Results as given in article PMC10063231, “Human thymopoiesis produces polyspecific CD8^+ α/β T cells responding to multiple viral antigens” (eLife, 2023).

System: TCR identified as responding to the VMNILLQYV peptide (GAD 114-122 TCR)
Experiment: Response of a cloned GAD 114-122-reactive TCR in the reporter cell line to cognate and unrelated peptides
Type: cell-based, human
Conditions: cognate peptide versus structurally unrelated peptide, Figure 5D

| Sequence | Response of GAD 114-122 TCR in reporter cell line |
| --- | --- |
| SLYNPAIVYA [peptide from human chondroitin sulfate N-acetylgalactosaminyltransferase 2] | responded even better |
| VMNILLQYV [peptide from the Glutamic Acid Decarboxylase protein] | responding |
